{
  "source": "patent US20250115578A1",
  "about": "“AROMATIC FUSED RING NAV1.8 INHIBITOR, AND USE THEREOF” (CHENGDU KANGHONG PHARMACEUTICAL CO., LTD., priority 2022, published 2025)",
  "key": {"hNav1.8": {"molecular_target": "hNav1.8 (Homo sapiens (Human), UniProt Q9Y5Y9)", "sequence (Q9Y5Y9 whole entry)": "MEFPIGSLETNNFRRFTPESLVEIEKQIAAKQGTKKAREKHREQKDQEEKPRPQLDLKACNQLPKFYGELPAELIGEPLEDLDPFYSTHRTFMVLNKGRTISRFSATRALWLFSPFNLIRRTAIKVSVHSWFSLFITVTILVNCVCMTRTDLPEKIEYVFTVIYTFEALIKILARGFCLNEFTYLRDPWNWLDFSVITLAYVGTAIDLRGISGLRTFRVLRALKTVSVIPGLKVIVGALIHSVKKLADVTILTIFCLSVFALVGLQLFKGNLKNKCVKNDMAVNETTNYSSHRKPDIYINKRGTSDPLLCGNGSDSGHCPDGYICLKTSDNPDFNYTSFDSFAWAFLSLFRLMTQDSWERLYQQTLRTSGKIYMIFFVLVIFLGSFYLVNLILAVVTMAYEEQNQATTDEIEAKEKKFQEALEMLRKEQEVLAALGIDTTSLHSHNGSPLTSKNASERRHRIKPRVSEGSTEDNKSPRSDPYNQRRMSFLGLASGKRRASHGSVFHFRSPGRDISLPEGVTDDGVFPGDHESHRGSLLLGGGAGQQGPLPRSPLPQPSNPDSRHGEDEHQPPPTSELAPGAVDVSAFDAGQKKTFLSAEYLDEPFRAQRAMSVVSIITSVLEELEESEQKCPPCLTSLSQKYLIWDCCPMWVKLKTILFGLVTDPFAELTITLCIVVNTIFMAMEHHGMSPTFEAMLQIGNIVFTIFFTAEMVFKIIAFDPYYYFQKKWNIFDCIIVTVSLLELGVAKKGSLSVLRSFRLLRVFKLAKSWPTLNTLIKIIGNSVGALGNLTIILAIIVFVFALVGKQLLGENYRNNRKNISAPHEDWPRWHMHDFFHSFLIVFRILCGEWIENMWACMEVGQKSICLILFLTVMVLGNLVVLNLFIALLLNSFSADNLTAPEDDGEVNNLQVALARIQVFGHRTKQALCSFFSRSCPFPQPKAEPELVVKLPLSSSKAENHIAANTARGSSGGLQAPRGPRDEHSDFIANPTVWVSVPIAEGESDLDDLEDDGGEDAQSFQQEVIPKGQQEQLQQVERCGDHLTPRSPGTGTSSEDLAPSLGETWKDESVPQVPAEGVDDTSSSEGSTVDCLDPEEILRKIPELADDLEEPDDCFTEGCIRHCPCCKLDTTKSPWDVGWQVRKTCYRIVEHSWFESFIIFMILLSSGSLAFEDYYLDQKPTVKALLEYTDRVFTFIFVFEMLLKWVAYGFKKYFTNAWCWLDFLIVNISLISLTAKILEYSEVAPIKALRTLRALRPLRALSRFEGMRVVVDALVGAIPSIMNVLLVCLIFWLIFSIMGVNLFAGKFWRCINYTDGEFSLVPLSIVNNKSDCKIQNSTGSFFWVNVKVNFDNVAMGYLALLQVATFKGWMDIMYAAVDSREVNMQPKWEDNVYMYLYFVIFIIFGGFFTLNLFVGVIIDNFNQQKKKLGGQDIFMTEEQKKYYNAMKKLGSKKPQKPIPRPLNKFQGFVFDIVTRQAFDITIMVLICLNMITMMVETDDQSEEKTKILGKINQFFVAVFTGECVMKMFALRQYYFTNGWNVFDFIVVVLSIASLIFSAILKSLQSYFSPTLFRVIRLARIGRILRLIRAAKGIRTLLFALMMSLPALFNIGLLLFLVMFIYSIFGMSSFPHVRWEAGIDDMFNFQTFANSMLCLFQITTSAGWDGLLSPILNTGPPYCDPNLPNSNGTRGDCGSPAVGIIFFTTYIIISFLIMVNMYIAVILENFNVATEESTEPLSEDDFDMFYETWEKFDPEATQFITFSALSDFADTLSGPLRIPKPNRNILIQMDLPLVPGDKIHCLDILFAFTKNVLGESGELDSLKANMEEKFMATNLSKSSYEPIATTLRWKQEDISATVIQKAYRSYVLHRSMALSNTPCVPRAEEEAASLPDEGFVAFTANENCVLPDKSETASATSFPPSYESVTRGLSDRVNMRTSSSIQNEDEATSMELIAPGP", "test": "Manual patch clamp, Method 1 (CHO cell line stably expressing hNav1.8)", "format": "cell-based", "settings": "100 nM; Method 1, CHO-hNav1.8; read-out: Inhibition rate of hNav1.8", "excerpt": "The patch clamp technique is known as the “gold standard” for studying ion channels, and it uses glass microelectrodes to seal the cell membrane to measure the currents of various membrane channel. […] Patch clamp technology can evaluate the inhibition strength of different compounds on different states of Navs by measuring the changes of membrane channel currents after different compounds bind to different states of Navs.\nThe representative compounds of the present invention used stable CHO or HEK293 cell lines transfected with specific ion channels to measure the effect of the compounds on Nav1.8 currents by manual patch clamp test, to evaluate their inhibition strength.\nThe assay protocol of manual patch clamp is as follows:\nCHO cell lines with stable expression of hNav1.8 were cultured in F12 medium containing 10% fetal bovine serum at a constant temperature of 37° C., and the carbon dioxide concentration was maintained at 5%. The old culture medium was removed and washed once with PBS, then 1 mL 0.25%-Trypsin-EDTA solution was added and incubated at 37° C. for 1 min. When the cells were detached from the bottom of the dish, 5 mL of the complete medium preheated at 37° C. was added, and the aggregated cells were separated by gently blowing with a straw. The cell suspension was transferred into a sterile centrifuge tube and centrifuged at 1000 rpm for 5 min to collect cells. The cells were then inoculated into a cell culture dish with a diameter of 6 cm (2.5×10^5 cells/petri dish, 5 mL medium) for expansion or maintenance.\nIn order to maintain the electrophysiological activity of the cells, the cell density must be less than 80%.\nThe cells were separated with 0.25%-Trypsin-EDTA before the assay, and 5×10^3 cells were seeded on a cover slip and cultured in a 24-well plate (final volume: 500 μL) for 18 h. Then the assay was conducted.\nThe compounds prepared in the examples of the present invention were dissolved in dimethyl sulfoxide (DMSO) and prepared into DMSO stock solution with a concentration of 10 mM for assay. And it was diluted to various concentrations with extracellular solution (140 mM NaCl, 3.5 mM KCl, 1 mM MgCl2, 2 mM CaCl2), 10 mM Glucose, 10 mM HEPES, 1.25 mM NaH2PO4, pH=7.4 regulated by NaOH), and the final concentration of DMSO in each compound sample was 0.10% or less.\nA capillary glass pipette (BF150-86-10, Sutter Instruments) was pulled into a recording electrode with a micropipette puller (P97, Sutter Instruments). The micromanipulator (MP285, Sutter Instruments) was manipulated under an inverted microscope (IX71, Olympus) to make the recording electrode contact the cell and negative pressure suction was applied to achieve a GQ seal. Then, rapid capacitance compensation was performed, and negative pressure was continued, cell membrane was broken by suction, and whole cell recording mode was formed. Then the slow capacitance was compensated and the membrane capacitance and series resistance were recorded without leakage compensation. When the whole cell recording current was stabilized, dosing was initiated, and the next concentration was detected after acting 5 minutes of each drug concentration. Multiple cells were independently repeated during the recording period. All electrophysiological assays were performed at room temperature. Specifically, 6 concentrations (measuring IC50) or 2 concentrations (preliminary screening) were set for each compound, and the percentage of inhibition of sodium channels was determined by calculating the relative percentage of peak current generated before and after each concentration compound treated cells, and the IC50 value or percentage of inhibition at a specific concentration was calculated using IGOR pro software."}, "[1]": {"test": "Assay of kinetic solubility", "format": "physicochemical", "settings": "aqueous buffer, kinetic from dmso stock, pH 3.5 phosphate buffer, 25° C.", "experimental": "The stock solutions of the test compound and the standard progesterone were prepared in DMSO at the concentration of 10 mM.\n30 μL of stock solutions at 10 mM of the test compounds and standard substance were placed in order into their proper 96-well plate. 970 μL phosphate buffer at the specified pH was added to the proper vial of the sample plate. The assay was performed in duplicate. A stirring stick was added to each vial and the teflon/silicone plug was capped. The sample tray was then placed in the Eppendorf Thermomixer Comfort and shaken at 1100 RPM at 25° C. for 2 hours. After 2 hours, plugs were removed, a big magnet was used to remove the stirring sticks, and samples were transferred from the sample plate to the filter plate. Vacuum pump was used to create negative pressure and filtered the samples. Transferred 5 μL of the filtrate to the new sample plate, then added 5 μL DMSO and 490 μL water/acetonitrile (V/V=1/1) to dilute the solvent. The dilution factor may be adjusted according to the solubility values of the substances to be tested or the strength of its LC-MS signal response.\nFrom the 10 mM DMSO stock solution, 15 μL of that was transferred into the empty plate and 485 μL DMSO was added to prepare a 300 μM standard solution. From the 300 μM standard solution plate, 5 μL of that was transferred to another empty plate and 5 μL phosphate buffer at specified pH and 490 μL water/acetonitrile (V/V=1/1) dilution solvent were added to the standard solution to get a final concentration of 3 μM. The concentration of the standard solution may be adjusted according to the strength of its LC-MS signal response.\nThe sample plate was placed into the sample tray of the automatic sampler and the samples were evaluated by LC-MS/MS analysis.\nAll calculations were carried out by Microsoft Excel.\nThe sample filtrate was analyzed and quantified against a standard of known concentrations using LC-MS spectral peaks to identify and quantify. The solubility values of the control drug and the compounds to be tested were calculated as the following formula: • [Sample]: concentration of the sample • AREASample: peak area of the sample • INJ VOLStd: standard sample injection volume • DFSample: sample dilution factor • [STD]: standard substance concentration • AREAStd: peak area of standard substance • INJ VOLSample: sample injection volume"}, "[2]": {"system": "postoperative pain model in rats", "test": "Efficacy test in postoperative pain model in rats (mechanical allodynia, PWT)", "format": "in vivo, Sprague-Dawley male rats", "settings": "single oral 30 mg/kg, at 2 h and 4 h after administration", "experimental": "Sprague-Dawley male rats, purchased from Zhejiang Vital River Laboratory Animal Technology Co., LTD\nCompounds of the example 10, 14, 16, 31 of the invention were weighted and prepared into solutions of 3 mg/mL using 5% DMSO (Anhui Senrise Technologies Co., Ltd)+30% Solutol HS15 (Beijing Ouhe Technology Co., LTD.)+65% water for injection, and administered at a volume of 10 mL/kg by gavage. The dosage was 30 mg/kg.\nAnimals were anesthetized with Zoletil 50+ Xylazine Hydrochloride (20 mg/kg+8 mg/kg, intraperitoneally injected). The surgical area on the plantar skin of the left hind paw was disinfected three times with iodophor and 70% ethanol, and the surgery was started after the skin was dry.\nA longitudinal incision about 1 cm was made towards the toes starting from 0.5 cm away from the heel of the left hind paw. After the skin was incised, the flexor digitorum brevis was raised and longitudinal blunt injury was caused. After hemostasis by pressing, the wound was sutured. After surgery, animals were placed on an electric warm pad and 5 mL of physiological saline was injected subcutaneously to prevent dehydration. 24 h after modeling, all animals (including the normal control group) were tested for base mechanical allodynia (PWT). The modeling animals without mechanical hypersensitivity (PWT greater than 5 g) were excluded and […] were selected and randomly divided into 5 groups, with 9 animals in each group except 5 in the normal group (negative control group).\nThe animals were weighed and administered orally at a volume of 10 mL/kg. Except normal control animals, other animals were given a single dose of compounds, and mechanical allodynia was performed by test fibers on all groups of animals at 1 h, 2 h and 4 h after dosing. The rats were placed individually in a plexiglass box with a grid at the bottom to ensure that the paws of the rats could be tested. The rats would acclimate for 15 minutes before the test. After the acclimation was completed, the test fibers were used to test on the plantar center of the rat's left hind paw. Pressed the test fiber vertically against the skin and applied force to bend the fiber for 6 to 8 seconds, with 5 second intervals between each test. The rapid withdrawal of the animal's paws during the test was recorded as a pain response. The animal's paw withdrawal when the fibers left the animal's skin was also recorded as a pain response. If the animal moves or walks around, it's not recorded as a pain response, and the test should be repeated.\nMechanical hyperalgesia was expressed as the paw withdrawal threshold (PWT) in the rat behavioral test, which was calculated according to the following formula:\n50% response threshold (g)=(10^(Xf+kδ)/10,000 • Xf=final test fiber value used in the test • k=table value (Chaplan et al. 1994, page 62) • δ=mean deviation\nData were collected with excel software and analyzed with Prism 7.0 (Graph pad software, Inc.) software by two-way ANOVA followed by Dunnett multiple comparison test."}, "animal models of pain": {"system": "animal models of pain", "settings": "carrageenan, CFA, CCI, SNL and acute mechanical pain models; cited from earlier work"}, "[3]": {"system": "STZ-induced diabetic neuropathic heat pain model", "settings": "cited from earlier work"}, "CFA and SNL models": {"system": "CFA and SNL models", "settings": "cited from earlier work"}, "postoperative toothache": {"system": "postoperative toothache", "settings": "phase II; cited from earlier work"}},
  "note": "Read-outs that look alike come from different tables or passages of the source.",
  "data": [
    {"smiles": "NS(=O)(=O)c1cc(NC(=O)c2cc(Cl)c(C(F)(F)F)cc2N2CCCC(F)(F)CC2)ccn1", "note": "[Example 31, 5-chloro-2-(4,4-difluoroazepan-1-yl)-N-(2-sulfamoylpyridin-4-yl)-4-trifluoromethylbenzamide, reference compound]", "values": [
      {"measurement": "inhibition at 0.1 µM", "setting": "hNav1.8", "result": 97.1, "unit": "%"},
      {"measurement": "solubility kinetic at 2 h", "setting": "[1]", "result": 0.69, "unit": "µM"},
      {"measurement": "Inhibition of mechanical hyperalgesia induced by postoperative pain model", "setting": "[2]", "result": "inhibited mechanical hyperalgesia"}
    ]},
    {"smiles": "COc1cc(NC(=O)c2ccc(-c3ccc(Cl)cc3)o2)cc(OC)c1", "note": "[Example A-803467]", "values": [
      {"measurement": "Pain relief effect compared with the model group", "setting": "animal models of pain", "result": "exceeding 50%"},
      {"measurement": "Duration of efficacy versus lidocaine", "setting": "[3]; local injection of plantar", "result": "lasted longer"},
      {"measurement": "Efficacy versus lidocaine", "setting": "[3]; local injection of plantar", "result": "equivalent"},
      {"measurement": "Efficacy versus lidocaine", "setting": "[3]; systemic administration", "result": "superior to lidocaine"}
    ]},
    {"smiles": "CNC(=O)c1ccc(-c2cc(Cl)cc(Cl)c2Cl)c(N)n1", "note": "[PF-01247324]", "values": [
      {"measurement": "Pain relief", "setting": "CFA and SNL models", "result": "significant pain relief"}
    ]},
    {"smiles": "COc1ccc(Cl)c(-c2ccc(NC(=O)c3ccnn3C)nc2N)c1", "note": "[PF-04531083]", "values": [
      {"measurement": "Activity versus placebo", "setting": "postoperative toothache", "result": "did not show better activity than placebo"}
    ]}
  ]
}
